# Measurements published in ChEMBL document CHEMBL1201862, “PubChem BioAssay data set” (2004).
#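 Where inhibition never reached the appropriate level, the endpoint shown equals the highest concentration tested. Otherwise, values were interpolated linearly from a five-concentration, 48-hour dose response in 96-well plates. GI50 = concentration required for 50% inhibition of growth.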 Active and inactive are the calls of the source. Cut-off read from the data, not from the text of the source: active = GI50 up to about 1.1 µM and inactive = higher.
# Assays:
# Test in all cases: inhibition of tumour cell growth, NCI panel, 48 h
# OVCAR-4 = tested on: OVCAR-4
# A549 = tested on: A549
# NCI/ADR-RES = tested on: NCI/ADR-RES
# MCF7 = tested on: MCF7
# OVCAR-3 = tested on: OVCAR-3
# TK-10 = tested on: TK-10
# Malme-3M = tested on: Malme-3M
# UACC-62 = tested on: UACC-62
# CCRF-CEM = tested on: CCRF-CEM
# SF-268 = tested on: SF-268
# HT-29 = tested on: HT-29
# OVCAR-5 = tested on: OVCAR-5
# OVCAR-8 = tested on: OVCAR-8
# DU-145 = tested on: DU-145
# NCI-H460 = tested on: NCI-H460
# SK-MEL-5 = tested on: SK-MEL-5
# U-251 = tested on: U-251
# A498 = tested on: A498
# EKVX = tested on: EKVX
# NCI-H226 = tested on: NCI-H226
# ACHN = tested on: ACHN
# LOX IMVI = tested on: LOX IMVI
# SN12C = tested on: SN12C
# HOP-92 = tested on: HOP-92
# SK-OV-3 = tested on: SK-OV-3
# HOP-62 = tested on: HOP-62
# HCT-116 = tested on: HCT-116
# IGROV-1 = tested on: IGROV-1
# K562 = tested on: K562
# MDA-MB-231 = tested on: MDA-MB-231
# UACC-257 = tested on: UACC-257
# 786-0 = tested on: 786-0
# SF-539 = tested on: SF-539
# SW-620 = tested on: SW-620
# SNB-19 = tested on: SNB-19
# M14 = tested on: M14
# SF-295 = tested on: SF-295
# PC-3 = tested on: PC-3
# MDA-N = tested on: MDA-N
# SK-MEL-28 = tested on: SK-MEL-28
# Hs-578T = tested on: Hs-578T
# UO-31 = tested on: UO-31
# RXF 393 = tested on: RXF 393
# BT-549 = tested on: BT-549
# SK-MEL-2 = tested on: SK-MEL-2
# T47D = tested on: T47D
# HL-60 = tested on: HL-60
# MDA-MB-435 = tested on: MDA-MB-435
# COLO 205 = tested on: COLO 205
# RPMI-8226 = tested on: RPMI-8226
# MOLT-4 = tested on: MOLT-4
# HCT-15 = tested on: HCT-15
# KM12 = tested on: KM12
structure (smiles),measurement,setting,value
CCOC(=O)c1nc2ccccc2nc1Oc1ccc(C#N)cc1,GI50,OVCAR-4,> 100 µM (inactive)
same,GI50,A549,> 100 µM (inactive)
same,GI50,NCI/ADR-RES,> 100 µM (inactive)
same,GI50,MCF7,> 100 µM (inactive)
same,GI50,OVCAR-3,> 100 µM (inactive)
same,GI50,TK-10,> 100 µM (inactive)
same,GI50,Malme-3M,> 100 µM (inactive)
same,GI50,UACC-62,> 100 µM (inactive)
same,GI50,CCRF-CEM,> 100 µM (inactive)
same,GI50,SF-268,> 100 µM (inactive)
same,GI50,HT-29,> 100 µM (inactive)
same,GI50,OVCAR-5,> 100 µM (inactive)
same,GI50,OVCAR-8,> 100 µM (inactive)
same,GI50,DU-145,> 100 µM (inactive)
same,GI50,NCI-H460,> 100 µM (inactive)
same,GI50,SK-MEL-5,> 100 µM (inactive)
same,GI50,U-251,> 100 µM (inactive)
same,GI50,A498,> 100 µM (inactive)
same,GI50,EKVX,> 100 µM (inactive)
same,GI50,NCI-H226,> 100 µM (inactive)
same,GI50,ACHN,> 100 µM (inactive)
same,GI50,LOX IMVI,> 100 µM (inactive)
same,GI50,SN12C,> 100 µM (inactive)
same,GI50,HOP-92,96.6 µM (inactive)
same,GI50,SK-OV-3,> 100 µM (inactive)
same,GI50,HOP-62,> 100 µM (inactive)
same,GI50,HCT-116,> 100 µM (inactive)
same,GI50,IGROV-1,> 100 µM (inactive)
same,GI50,K562,> 100 µM (inactive)
same,GI50,MDA-MB-231,> 10 µM (inactive)
same,GI50,UACC-257,> 100 µM (inactive)
same,GI50,786-0,> 100 µM (inactive)
same,GI50,SF-539,> 100 µM (inactive)
same,GI50,SW-620,> 100 µM (inactive)
same,GI50,SNB-19,> 100 µM (inactive)
same,GI50,M14,> 100 µM (inactive)
same,GI50,SF-295,> 100 µM (inactive)
same,GI50,PC-3,> 100 µM (inactive)
same,GI50,MDA-N,> 100 µM (inactive)
same,GI50,SK-MEL-28,> 100 µM (inactive)
same,GI50,Hs-578T,> 100 µM (inactive)
same,GI50,UO-31,> 100 µM (inactive)
same,GI50,RXF 393,> 100 µM (inactive)
same,GI50,BT-549,> 100 µM (inactive)
same,GI50,SK-MEL-2,> 100 µM (inactive)
same,GI50,T47D,> 100 µM (inactive)
same,GI50,HL-60,> 100 µM (inactive)
same,GI50,MDA-MB-435,> 100 µM (inactive)
same,GI50,COLO 205,> 100 µM (inactive)
same,GI50,RPMI-8226,> 100 µM (inactive)
same,GI50,MOLT-4,> 100 µM (inactive)
same,GI50,HCT-15,> 100 µM
same,GI50,KM12,> 100 µM (inactive)
